According to patent US20150133543A1, “TOPICAL GEL COMPOSITION COMPRISING AN INGENOL DERIVATIVE AND A SOLVENT MIXTURE” (LEO Laboratories Limited, priority 2012, published 2015):
Values after ≈ are worked out from the molar mass of the structure shown. Like-named read-outs stand apart in the source and are kept apart here.

Experiments:
[1] = Solubility of ingenol-3-angelate in co-solvents; format: physicochemical; conditions: organic solvent or mixture
Description: In order to effect a highly efficient dissolution of the ingenol derivative it may be favourably to add a co-solvent to the composition. The co-solvent may be selected from the group consisting of lower alcohols, such as n-propanol, isopropanol, n-butanol, 2-butanol or benzyl alcohol, diols such as propylene glycol, a pyrrolidone such as N-methylpyrrolidone or N-hydroxyalkylpyrrolidone, an azone, ethyl acetate, dodecyl amine, diethylene glycol monoethyl ether, a fatty acid such as oleic or lauric acid, propylene carbonate, menthol or limolene. In particular, ingenol-3-angelate is soluble to freely soluble in the co-solvents benzyl alcohol (201-223 mg/ml), N-methylpyrrolidone (104-260 mg/ml), ethyl acetate (102-255 mg/ml), isopropanol (225-248 mg/ml) and diethylene glycol monoethyl ether (57-114 mg/ml). Some of these co-solvents, such as lower alcohols, may also, as required, act as penetration enhancers aiding the penetration of the ingenol derivative into the viable layers of the skin.

[2] = oral administration to rats, versus a formulation in lipid alone; cited from earlier work

Q: Which results are given for `C/C=C(/C)C(=O)O[C@H]1C(C)=C[C@]23C(=O)[C@@H](C=C(CO)[C@@H](O)[C@]12O)[C@H]1[C@@H](C[C@H]3C)C1(C)C` [ingenol-3-angelate, 2-methyl-2(Z)-butenoic acid (1aR,2S,5R,5aS,6S,8aS,9R,10aR)-5,5a-dihydroxy-4-(hydroxymethyl)-1,1,7,9-tetramethyl-11-oxo-1a,2,5,5a,6,9,10,10a-octahydro-1H-2,8a-methanocyclopenta[a]cyclopropa[e]cyclodecen-6-yl ester]?
A: solubility ([1]; co-solvent N-methylpyrrolidone, read-out: solubility in N-methylpyrrolidone): 104 to 260 mg/mL (≈ 242 to 604 mM); solubility ([1]; co-solvent benzyl alcohol, read-out: solubility in benzyl alcohol): 201 to 223 mg/mL (≈ 467 to 518 mM); solubility ([1]; co-solvent diethylene glycol monoethyl ether, read-out: solubility in diethylene glycol monoethyl ether): 57 to 114 mg/mL (≈ 132 to 265 mM); solubility ([1]; co-solvent ethyl acetate, read-out: solubility in ethyl acetate): 102 to 255 mg/mL (≈ 237 to 592 mM); solubility ([1]; co-solvent isopropanol, read-out: solubility in isopropanol): 225 to 248 mg/mL (≈ 523 to 576 mM)

Q: With `C=C1/C(=C\C=C2/CCC[C@]3(C)[C@@H]([C@H](C)/C=C/C=C/C(O)(CC)CC)CC[C@@H]23)C[C@@H](O)C[C@@H]1O` [seocalcitol] as the molecule, how does the bioavailability of seocalcitol [2] read?
A: not improved
